Literature values in article PMC2574912 (Life sciences, 2008).

Columns and labels:
[1] = test system: non-AT1, non-AT2 binding site in rat brain; conditions: sulfhydryl reducing agents, ref Karamyan and Speth, 2007
[2] = test system: AT2 receptor; conditions: PCMB; ref Karamyan, Speth unpublished observations
[3] = test system: AT-1 angiotensin receptor; conditions: presence of PCMB; ref Karamyan and Speth, 2007

| Effect on binding of 125I-Ang II to the non-AT1, non-AT2 binding site [1] | SMILES | Effect on AT2 receptor binding [2] | Effect on AT1 receptor binding [3] |
| --- | --- | --- | --- |
| inhibit the binding | OCCS [β-mercaptoethanol] |  |  |
|  | O=C(O)c1cc[c]([Hg][Cl])cc1 [PCMB, parachloromercuribenzoate] | not inhibited | inactivated |
| inhibit the binding | O[C@@H](CS)[C@@H](O)CS (racemic) [dithiothreitol] |  |  |
